ChEMBL document CHEMBL1201862, “PubChem BioAssay data set” (2004)
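Protocol summary: plate cells (96-well), add compound at 5 concentrations, incubate 48 h, interpolate endpoints linearly. GI50: concentration for 50% inhibition of growth.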 Active and inactive are the calls of the source. No stated cut-off is given here; in the data, active = GI50 up to about 1.1 µM and inactive = higher.

Legend:
Test in all cases: NCI anticancer screen, dose series, 48 h
SF-268 = test system: SF-268
NCI-H226 = test system: NCI-H226
OVCAR-8 = test system: OVCAR-8
MOLT-4 = test system: MOLT-4
M14 = test system: M14
NCI-H23 = test system: NCI-H23
COLO 205 = test system: COLO 205
A498 = test system: A498
NCI-H522 = test system: NCI-H522
HT-29 = test system: HT-29
OVCAR-5 = test system: OVCAR-5
SK-OV-3 = test system: SK-OV-3
UACC-257 = test system: UACC-257
DLD-1 = test system: DLD-1
CAKI-1 = test system: CAKI-1
MCF7 = test system: MCF7
NCI/ADR-RES = test system: NCI/ADR-RES
BT-549 = test system: BT-549
DU-145 = test system: DU-145
T47D = test system: T47D

| SMILES | GI50 (SF-268) | GI50 (NCI-H226) | GI50 (OVCAR-8) | GI50 (MOLT-4) | GI50 (M14) | GI50 (NCI-H23) | GI50 (COLO 205) | GI50 (A498) | GI50 (NCI-H522) | GI50 (HT-29) | GI50 (OVCAR-5) | GI50 (SK-OV-3) | GI50 (UACC-257) | GI50 (DLD-1) | GI50 (CAKI-1) | GI50 (MCF7) | GI50 (NCI/ADR-RES) | GI50 (BT-549) | GI50 (DU-145) | GI50 (T47D) |
| --- | --- | --- | --- | --- | --- | --- | --- | --- | --- | --- | --- | --- | --- | --- | --- | --- | --- | --- | --- | --- |
| Oc1c(Cl)c2nccnc2c2ccccc12 | > 100 µM (inactive) | > 100 µM (inactive) | > 100 µM (inactive) | > 100 µM (inactive) | > 100 µM (inactive) | > 100 µM (inactive) | > 100 µM (inactive) | > 100 µM (inactive) | > 100 µM (inactive) | > 100 µM (inactive) | > 100 µM (inactive) | > 100 µM (inactive) | > 100 µM (inactive) | > 100 µM (inactive) |  |  |  |  |  |  |
| CC1=C(C(=O)Nc2ccccc2C)C(c2ccccc2C)C(C(=O)Nc2ccccc2C)=C(C)N1 | 20.4 µM (inactive) | 21.5 µM (inactive) | 19.1 µM (inactive) | > 10 µM (inactive) |  | 21.5 µM (inactive) | 24.3 µM (inactive) | 16.8 µM (inactive) | 14.8 µM (inactive) | 20.3 µM (inactive) | 23.3 µM (inactive) |  | 27.5 µM (inactive) | 14.7 µM (inactive) |  |  |  |  |  |  |
| Cn1cc(C(=O)C[n+]2ccccc2)c2ccccc21 |  | 12.5 µM (inactive) | 58.6 µM (inactive) | 54.7 µM (inactive) | > 100 µM (inactive) | > 100 µM (inactive) | 52.2 µM (inactive) | 28.9 µM (inactive) | 56 µM (inactive) | 48.5 µM (inactive) |  |  | > 100 µM (inactive) | > 100 µM (inactive) | 30.3 µM (inactive) |  |  |  |  |  |
| O=C(Cc1ccccc1)NN1C(=O)C(Cl)C1c1ccccc1O (configuration not stated) | 13.5 µM (inactive) | 10 µM (inactive) | 22.4 µM (inactive) | 3.22 µM (inactive) | 14.1 µM (inactive) | 20.4 µM (inactive) | 16.4 µM (inactive) |  | 3.27 µM (inactive) | 8.05 µM (inactive) | 15.4 µM (inactive) | 20.3 µM (inactive) | 11.4 µM (inactive) | 9.95 µM (inactive) | 40.2 µM (inactive) |  |  |  |  |  |
| CCOC(=O)c1[nH]c(CN(C)Cc2[nH]c(C(=O)OCC)c(C)c2C(=O)OCc2ccccc2)c(C(=O)OCc2ccccc2)c1C | 10.7 µM (inactive) | 12.7 µM (inactive) | 24 µM (inactive) | > 100 µM (inactive) | 4.99 µM (inactive) | 12.3 µM (inactive) | 9.08 µM (inactive) | 15 µM (inactive) | 6.87 µM (inactive) | 2.77 µM (inactive) | 6.81 µM (inactive) |  | 21.4 µM (inactive) | 33.9 µM (inactive) | 2.85 µM (inactive) |  |  |  |  |  |
| Cc1n[nH]c(=O)c2c3c([nH]c12)-c1ccccc1C3 | > 100 µM (inactive) | 51.1 µM (inactive) | > 100 µM (inactive) | 39.9 µM (inactive) | > 100 µM (inactive) | > 100 µM (inactive) | > 100 µM (inactive) | > 100 µM (inactive) | > 100 µM (inactive) | > 100 µM (inactive) | > 100 µM (inactive) | > 100 µM (inactive) | 19.5 µM (inactive) |  | > 100 µM (inactive) | 75.3 µM (inactive) | > 100 µM (inactive) | > 100 µM (inactive) | > 100 µM (inactive) | 23.5 µM (inactive) |
| O=C(NC1=C(Cl)C(=O)c2ccccc2C1=O)C(=O)c1c(O)c2ccccc2oc1=O | 5.62 µM (inactive) | 9.18 µM (inactive) | 3.44 µM (inactive) | 4.65 µM (inactive) | 1.83 µM (inactive) | 1.53 µM (inactive) | 5.87 µM (inactive) | 14.7 µM (inactive) | 3.69 µM (inactive) | 3.07 µM (inactive) | 11.5 µM (inactive) | 12.6 µM (inactive) | 1.51 µM (inactive) |  | 9.66 µM (inactive) | 1.62 µM (inactive) | 3.13 µM (inactive) | 3.06 µM (inactive) | 1.49 µM (inactive) | 4.83 µM (inactive) |
| CSc1[nH]nc(N)c1C(=O)Nc1ccccc1 | > 100 µM (inactive) | > 100 µM (inactive) | > 100 µM (inactive) | > 100 µM (inactive) | > 100 µM (inactive) | > 100 µM (inactive) | > 100 µM (inactive) | > 100 µM (inactive) | 52.4 µM (inactive) | > 100 µM (inactive) | > 100 µM (inactive) | > 100 µM (inactive) | > 100 µM (inactive) |  | > 100 µM (inactive) | > 100 µM (inactive) | > 100 µM (inactive) | > 100 µM (inactive) | > 100 µM (inactive) | > 100 µM (inactive) |
| C/C(=N\Nc1nc2cc(C)ccc2s1)c1ccccn1 | 0.505 µM (active) | 0.348 µM (active) | 0.18 µM (active) | < 0.0246 µM (active) | 0.417 µM (active) | 0.39 µM (active) | 0.0518 µM (active) | 1.09 µM (active) | 0.148 µM (active) | 0.121 µM (active) | 0.661 µM (active) | 0.49 µM (active) | 0.5 µM (active) |  | 0.0562 µM (active) | 0.119 µM (active) | 0.261 µM (active) | 6.22 µM (inactive) | 0.652 µM (active) | 0.589 µM (active) |
| CC(=O)N(C(C)=O)c1cc2c3c(c1)CCCN3CCC2 | > 10 µM (inactive) | > 10 µM (inactive) | > 10 µM (inactive) | > 10 µM (inactive) | > 10 µM (inactive) | > 10 µM (inactive) | > 10 µM (inactive) | > 10 µM (inactive) | > 10 µM (inactive) | > 10 µM (inactive) | > 10 µM (inactive) | > 10 µM (inactive) | > 10 µM (inactive) |  | > 10 µM (inactive) | > 10 µM (inactive) | > 10 µM (inactive) | > 10 µM (inactive) | > 10 µM (inactive) | > 10 µM (inactive) |
| O=[N+]([O-])/C=C/c1cc2ccc3ccccc3c2[nH]1 | 1.77 µM (inactive) | 1.06 µM (active) | 2.28 µM (inactive) | 0.776 µM (active) | 1.64 µM (inactive) | 2.02 µM (inactive) | 1.75 µM (inactive) | 1.23 µM (inactive) | 0.851 µM (active) | 2.19 µM (inactive) | 2.29 µM (inactive) | 4.07 µM (inactive) | 2.24 µM (inactive) |  | 2.23 µM (inactive) | 1.44 µM (inactive) | 2.42 µM (inactive) | 1.89 µM (inactive) | 1.9 µM (inactive) | 1.31 µM (inactive) |
| Cc1cccc(-c2cc(=O)c3cc(C)c(C)c(C(=O)O)c3o2)c1 |  | > 100 µM (inactive) | > 100 µM (inactive) | > 100 µM (inactive) | > 100 µM (inactive) | > 100 µM (inactive) | > 100 µM (inactive) |  | > 100 µM (inactive) | > 100 µM (inactive) | > 100 µM (inactive) | > 100 µM (inactive) | > 100 µM (inactive) | > 100 µM (inactive) | > 100 µM (inactive) |  |  |  |  |  |
| C=CCN1C(=O)/C(=C/c2ccc(C)cc2)N=C1SC/C=C/C | 33.2 µM (inactive) | > 100 µM (inactive) | 30.1 µM (inactive) | 14.8 µM (inactive) | 45.6 µM (inactive) | 31.1 µM (inactive) | 36.5 µM (inactive) | 24.3 µM (inactive) | 29 µM (inactive) | 29.1 µM (inactive) | 43.6 µM (inactive) | > 100 µM (inactive) | 32.7 µM (inactive) |  | > 100 µM (inactive) | 29.4 µM (inactive) | 47.3 µM (inactive) | 30.4 µM (inactive) | 55.3 µM (inactive) | 16.3 µM (inactive) |
| OCC1OC(n2cnc3c(Cl)nc(Nc4ccccc4)nc32)CC1O (configuration not stated) | 65.6 µM (inactive) | > 100 µM (inactive) | > 100 µM (inactive) | 23.6 µM (inactive) | 60.1 µM (inactive) | 29.3 µM (inactive) | > 100 µM (inactive) | 70 µM (inactive) | 5.2 µM (inactive) | > 100 µM (inactive) | > 100 µM (inactive) | > 100 µM (inactive) | 59.3 µM (inactive) |  | 1.77 µM (inactive) | > 100 µM (inactive) | > 100 µM (inactive) | 35.6 µM (inactive) | > 100 µM (inactive) | > 100 µM (inactive) |
| OC1C2CCCCN2C[C@@H](O)[C@H]1O (some centres not stated) | > 100 µM (inactive) | > 100 µM (inactive) | > 100 µM (inactive) | > 100 µM (inactive) | > 100 µM (inactive) | > 100 µM (inactive) | > 100 µM (inactive) | > 100 µM (inactive) | 76.6 µM (inactive) | > 100 µM (inactive) | > 100 µM (inactive) | > 100 µM (inactive) | > 100 µM (inactive) |  | > 100 µM (inactive) | > 100 µM (inactive) | > 100 µM (inactive) | > 100 µM (inactive) | > 100 µM (inactive) | > 100 µM (inactive) |
| Cc1noc2c1C(=O)CCC2 | > 100 µM (inactive) | > 100 µM (inactive) | > 100 µM (inactive) | > 100 µM (inactive) | > 100 µM (inactive) |  | > 100 µM (inactive) |  | > 100 µM (inactive) | > 100 µM (inactive) | > 100 µM (inactive) | > 100 µM (inactive) | > 100 µM (inactive) | > 100 µM (inactive) | > 100 µM (inactive) |  |  |  |  |  |
| CCC1CCC2c3c([nH]c4ccc(C)cc34)C3C(=O)N(N(C)C)C(=O)C3C2C1 (configuration not stated) | 7.62 µM (inactive) | > 72.4 µM (inactive) | 22.2 µM (inactive) | 14.5 µM (inactive) | 14.5 µM (inactive) | > 67.3 µM (inactive) | 4.36 µM (inactive) | > 100 µM (inactive) | 0.748 µM (active) | 7.28 µM (inactive) | > 86.5 µM (inactive) | > 100 µM (inactive) | 5.64 µM (inactive) |  | > 34.4 µM (inactive) | 3.64 µM (inactive) | 4.35 µM (inactive) | 39.1 µM (inactive) | 29.9 µM (inactive) | 7.93 µM (inactive) |
